Assay [1] deals with HCV genotype 1b (Con1) replicon in HUH-7 cells. The assay is described as follows: HCV replicon luciferase reporter assay, genotype 1b. Type of assay: cell-based. The note with it: Hepatitis C virus, Huh-7, 72 h, HCV genotype 1b replicon luciferase, 3 days incubation, read-out: LE_1b (EC50, range). A digest of the protocol:
(§1)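 Replicon inhibition for both genotypes was measured as Renilla luciferase signal (EnduRen, 7.5 μM final, 2 h) after 3-day, 37° C exposure of replicon-bearing HUH-7 cells in 4% FCS DMEM, 0.5% DMSO. The 1b construct carries S1179I; the 1a H77 construct carries P1496L and S2204I. Twenty-point, 3-fold dilutions were fitted four-parametrically for EC50, and CC50 was taken from multiplexed Cell Titer-Blue.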

For assay [2], the system named is HCV genotype 1a (H77 strain) replicon in HUH-7 cells. The assay is described as follows: HCV replicon luciferase reporter assay, genotype 1a. It counts as cell-based. The note with it: Hepatitis C virus, Huh-7, 72 h, HCV genotype 1a replicon luciferase, 3 days incubation, read-out: LE_1a (EC50, range). A digest of the protocol: as §1
On the technique in general: A replicon is a self-replicating genome or part of one, used to study replication in cells.

We go through five molecules from patent publication US9499550B2 (BRISTOL-MYERS SQUIBB COMPANY, priority 2012, dated 2016).

One may read the EC50 as the concentration at which the effect is half-maximal. Turning to `CCOc1ccc2c(O[C@@H]3C[C@H]4C(=O)N[C@]5(C(=O)NS(=O)(=O)C6(C)CC6)C[C@H]5/C=C\CC[C@H](C)C[C@@H](C)[C@H](NC(=O)NC(C)(C)C(F)(F)F)C(=O)N4C3)nccc2c1` [Compound 5143, (2R,6S,7R,9S,13aS,14aR,16aS,Z)-2-((6-ethoxyisoquinolin-1-yl)oxy)-7,9-dimethyl-N-((1-methylcyclopropyl)sulfonyl)-5,16-dioxo-6-(3-(1,1,1-trifluoro-2-methylpropan-2-yl)ureido)-1,2,3,5,6,7,8,9,10,11,13a,14,14a,15,16,16a-hexadecahydrocyclopropa[e]pyrrolo[1,2-a][1,4]diazacyclopentadecine-14a-carboxamide], the EC50 in assay [1] is under 5.46 nM; in assay [2] it was 4.82 to 103 nM.

With `CCOc1ccc2c(O[C@@H]3C[C@H]4C(=O)N[C@]5(C(=O)NS(=O)(=O)C6(C)CC6)C[C@H]5/C=C\CC[C@@H](C)C[C@@H](C)[C@H](NC(=O)NC(C)(C)C(F)(F)F)C(=O)N4C3)nccc2c1` [Compound 5144, (2R,6S,7R,9R,13aS,14aR,16aS,Z)-2-((6-ethoxyisoquinolin-1-yl)oxy)-7,9-dimethyl-N-((1-methylcyclopropyl)sulfonyl)-5,16-dioxo-6-(3-(1,1,1-trifluoro-2-methylpropan-2-yl)ureido)-1,2,3,5,6,7,8,9,10,11,13a,14,14a,15,16,16a-hexadecahydrocyclopropa[e]pyrrolo[1,2-a][1,4]diazacyclopentadecine-14a-carboxamide], the concentration for a half-maximal effect (EC50) in assay [1] is under 5.46 nM; in assay [2], 4.82 to 103 nM.

For `CC(C)Oc1ccc2c(O[C@@H]3C[C@H]4C(=O)N[C@]5(C(=O)NS(=O)(=O)C6CC6)C[C@H]5/C=C\CC[C@H](C)C[C@@H](C)[C@H](NC(=O)OC(C)(C)C)C(=O)N4C3)nccc2c1` [Compound 5145, tert-butyl ((2R,6S,7R,9S,13aS,14aR,16aS,Z)-14a-((cyclopropylsulfonyl)carbamoyl)-2-((6-isopropoxyisoquinolin-1-yl)oxy)-7,9-dimethyl-5,16-dioxo-1,2,3,5,6,7,8,9,10,11,13a,14,14a,15,16,16a-hexadecahydrocyclopropa[e]pyrrolo[1,2-a][1,4]diazacyclopentadecin-6-yl)carbamate], the EC50 in assay [1] was under 5.46 nM; in assay [2], 4.82 to 103 nM.

Turning to `CC(C)Oc1ccc2c(O[C@@H]3C[C@H]4C(=O)N[C@]5(C(=O)NS(=O)(=O)C6CC6)C[C@H]5/C=C\CC[C@@H](C)C[C@@H](C)[C@H](NC(=O)OC(C)(C)C)C(=O)N4C3)nccc2c1` [Compound 5146, tert-butyl ((2R,6S,7R,9R,13aS,14aR,16aS,Z)-14a-((cyclopropylsulfonyl)carbamoyl)-2-((6-isopropoxyisoquinolin-1-yl)oxy)-7,9-dimethyl-5,16-dioxo-1,2,3,5,6,7,8,9,10,11,13a,14,14a,15,16,16a-hexadecahydrocyclopropa[e]pyrrolo[1,2-a][1,4]diazacyclopentadecin-6-yl)carbamate], the EC50 in assay [1] and in assay [2] was under 5.46 nM throughout.

Regarding `CC(C)Oc1ccc2c(O[C@@H]3C[C@H]4C(=O)N[C@]5(C(=O)NS(=O)(=O)C6CC6)C[C@H]5/C=C\CC[C@H](C)C[C@@H](C)[C@H](NC(=O)OC(C)(C)C(F)(F)F)C(=O)N4C3)nccc2c1` [Compound 5147, 1,1,1-trifluoro-2-methylpropan-2-yl((2R,6S,7R,9S,13aS,14aR,16aS,Z)-14a-((cyclopropylsulfonyl)carbamoyl)-2-((6-isopropoxyisoquinolin-1-yl)oxy)-7,9-dimethyl-5,16-dioxo-1,2,3,5,6,7,8,9,10,11,13a,14,14a,15,16,16a-hexadecahydrocyclopropa[e]pyrrolo[1,2-a][1,4]diazacyclopentadecin-6-yl)carbamate], the EC50 in assay [1] and in assay [2] was 4.82 to 103 nM throughout.
